Assay results reported in US8470829B2 (priority 2004, dated 2013).
Like-named read-outs stand apart in the source and are kept apart here.

Key:
[1] = biological target: T1, human androgen receptor (Homo sapiens, UniProt P10275); assay: Measurement of agonist effect on androgen receptor (reporter gene assay, 11A11B2 cells); type: cell-based; conditions: compound concentration showing a transcription activity of 5% (0.1 nmol/L DHT = 100%, assay medium alone = 0%), 48 hours
T1 construct: expressed in transfected cells
T1 sequence (P10275 1-920): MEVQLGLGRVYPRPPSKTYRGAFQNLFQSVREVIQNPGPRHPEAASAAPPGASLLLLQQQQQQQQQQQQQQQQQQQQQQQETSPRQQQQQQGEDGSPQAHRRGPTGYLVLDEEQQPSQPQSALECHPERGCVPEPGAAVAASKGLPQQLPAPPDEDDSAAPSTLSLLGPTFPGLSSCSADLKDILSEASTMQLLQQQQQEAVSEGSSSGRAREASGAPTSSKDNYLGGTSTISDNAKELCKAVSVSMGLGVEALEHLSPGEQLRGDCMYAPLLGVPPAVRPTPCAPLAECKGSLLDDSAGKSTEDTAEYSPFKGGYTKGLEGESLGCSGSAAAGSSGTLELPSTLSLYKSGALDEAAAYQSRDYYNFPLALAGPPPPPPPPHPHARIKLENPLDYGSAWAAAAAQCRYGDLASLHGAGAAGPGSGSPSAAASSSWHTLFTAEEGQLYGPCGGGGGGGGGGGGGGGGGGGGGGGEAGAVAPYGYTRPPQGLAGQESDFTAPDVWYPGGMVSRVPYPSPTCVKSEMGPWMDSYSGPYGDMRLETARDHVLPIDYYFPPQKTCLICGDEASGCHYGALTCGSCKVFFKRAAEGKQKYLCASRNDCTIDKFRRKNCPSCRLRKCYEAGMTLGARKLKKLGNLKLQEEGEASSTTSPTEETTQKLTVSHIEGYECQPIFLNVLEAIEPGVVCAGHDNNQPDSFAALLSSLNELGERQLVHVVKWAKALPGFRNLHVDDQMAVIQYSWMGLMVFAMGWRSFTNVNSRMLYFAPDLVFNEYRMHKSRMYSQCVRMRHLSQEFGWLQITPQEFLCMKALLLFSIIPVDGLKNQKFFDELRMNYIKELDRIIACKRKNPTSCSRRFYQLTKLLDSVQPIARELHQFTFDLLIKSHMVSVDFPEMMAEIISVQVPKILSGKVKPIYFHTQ
Procedure: (§1) HeLa cells (purchased from Dai-Nippon Seiyaku K. K.) were cultured overnight in Dulbecco's Modified Eagle Medium containing no phenol red, but containing 3% charcoal-treated fetal bovine serum (hereafter referred to as DCC-FBS) (this medium is hereafter referred to as phenol-red-free DMEM). An MMTV-Luc-Hyg vector (reporter plasmid with mouse mammary tumor virus long terminal repeat, containing an androgen response element and a hygromycin resistance gene: a vector obtained by substituting a chloramphenicol acetyl transferease gene of a GM-CAT vector (A.T.C.C No. 67282) purchased from the A.T.C.C. with the firefly luciferase gene, and inserting a hygromycin resistance gene as a drug resistant gene), and pSG5-hAR-neo (human androgen receptor expression vector: a vector having an androgen receptor gene under the control of the SV40 promoter, and having a neomycin resistance gene inserted as a drug resistance gene) were transfected into the HeLa cells using an FuGENE™ 6 Transfection Reagent (obtained from Roche).
(§2) The clone cells thus obtained (11A11B2 cells) were maintained and propagated using DMEM containing 400 μg/mL neomycin, 200 μg/mL hygromycin and 10% FBS, and were propagated using phenol-red-free DMEM containing 10% DCC-FBS three to four days prior to the performance of an androgen receptor reporter gene assay.
The 11A11B2 cells were inoculated in a white clear-bottomed 96-well microplate (COSTAR) so that the cell concentration was 1.0×10^4/well, and were cultured overnight using phenol-red-free DMEM containing 3% DCC-FBS (hereafter referred to as the assay medium). Samples of the assay medium containing the compounds of the Examples and compounds of the Comparative Examples were added so that the final concentrations of the compounds of the Examples and compounds of the Comparative Examples were 1, 10, 100, 1,000 and 10,000 nmol/L), and the cells were cultured for 48 hours, after which the transcription activity value was measured. The transcription activity was measured using a Bright-Glo™ Luciferase Assay System (Promega).
The transcription activity rates of the compounds of the Examples were calculated from the transcription activity measured by the abovementioned method, with the transcription activity value obtained at 0.1 nmol/L DHT taken as 100%, and the transcription activity value in the case of the assay medium alone taken as 0%. The compound concentration showing a transcription activity of 5% (EC5 value) was calculated from a linear equation for two points on either side of 5%.

[2] = biological target: T1, human androgen receptor; assay: Investigation of antagonist effect on androgen receptor (reporter gene assay, 11A11B2 cells, with DHT); type: cell-based
Procedure: as §1, §2
The 11A11B2 cells were inoculated in a white clear-bottomed 96-well microplate (COSTAR) so that the cell concentration was 1.0×10^4/well, and were cultured overnight. The assay medium containing DHT was added so that the final concentration of DHT was 0.1 nmol/L, and samples of the assay medium containing the compounds of the Examples or compounds of the Comparative Examples were added so that the final concentrations of the compounds of the Examples or compounds of the Comparative Examples were 1, 10, 100, 1,000 and 10,000 nmol/L, respectively. After culturing for 48, hours, the transcription activity values were measured. The transcription activity was measured using a Bright-Glo™ Luciferase Assay System (Promega).
The transcription activity rates of the compounds of the Examples were calculated from the transcription activity measured by the abovementioned method, with the transcription activity value obtained at 0.1 nmol/L DHT taken as 100%, and the transcription activity value in the case of the assay, medium alone taken as 0%.

[3] = with 0.1 nmol/L DHT, transcription activity rate of Test Example 1 subtracted, 11A11B2 cells, 48 hours, read-out: IC50

Structure (SMILES) | EC5 [1] [µM] | IC50 [2] [nM] | IC50 [2, 3] [nM]
CC1(C)C(=O)N(c2ccc(C#N)c(C(F)(F)F)c2)C(=O)N1c1ccc(Cl)c(NC(=O)OCCCCO)c1 [Example 33, {2-chloro-5-[3-(4-cyano-3-trifluoromethylphenyl)-5,5-dimethyl-2,4-dioxoimidazolidin-1-yl]phenyl}-carbamic acid 4-hydroxybutyl ester] | >10 | 300 | 
CN(C)CCNC(=O)Nc1nc2cc(N3C(=S)N(c4ccc(C#N)c(Cl)c4)C(=O)C3(C)C)ccc2s1 [Example 61, 1-{5-[3-(3-chloro-4-cyanophenyl)-5,5-dimethyl-4-oxo-2-thioxoimidazolidin-1-yl]benzothiazol-2-yl}-3-(2-dimethylaminoethyl)urea] | >10 | 300 | 
CN(C)CCOC(=O)Nc1nc2cc(N3C(=S)N(c4ccc(C#N)c(Cl)c4)C(=O)C3(C)C)ccc2s1 [Example 64, {5-[3-(3-chloro-4-cyanophenyl)-5,5-dimethyl-4-oxo-2-thioxoimidazolidin-1-yl]benzothiazol-2-yl}carbamic acid 2-dimethylaminoethyl ester] | >10 |  | 200
CN1C(=S)N(c2ccc(C#N)c(C(F)(F)F)c2)C(=O)C1(C)C [Comparative Example 1, 4-(5-oxo-2-thioxo-3,4,4-trimethyl-1-imidazolidinyl)-2-trifluoromethylbenzonitrile, reference compound] | 8e-05 |  | 
CC(=O)N1CCC(N2C(=S)N(c3ccc(C#N)c(Cl)c3)C(=O)C2(C)C)CC1 [Example 6, 4-[3-(1-acetylpiperidin-4-yl)-4,4-dimethyl-5-oxo-2-thioxoimidazolidin-1-yl]-2-chlorobenzonitrile] | >10 | 200 | 
CC1(C)C(=O)N(c2ccc(C#N)c(C(F)(F)F)c2)C(=S)N1c1ccc(Cl)c(NC(=O)OCC(O)CO)c1 (centres unmarked) [Example 49, {2-chloro-5-[3-(4-cyano-3-trifluoromethylphenyl)-5,5-dimethyl-4-oxo-2-thioxoimidazolidin-1-yl]phenyl}-carbamic acid 2,3-dihydroxypropyl ester] | >10 | 300 | 
CN(C)CCCOC(=O)Nc1cc(N2C(=O)N(c3ccc(C#N)c(C(F)(F)F)c3)C(=O)C2(C)C)ccc1Cl [Example 32, {2-chloro-5-[3-(4-cyano-3-trifluoromethylphenyl)-5,5-dimethyl-2,4-dioxoimidazolidin-1-yl]phenyl}-carbamic acid 3-dimethylaminopropyl ester] | >10 | 500 | 
CCS(=O)(=O)N1CCC(N2C(=S)N(c3ccc(C#N)c(C(F)(F)F)c3)C(=O)C2(C)C)CC1 [Example 5, 4-[3-(1-ethanesulfonylpiperidin-4-yl)-4,4-dimethyl-5-oxo-2-thioxoimidazolidin-1-yl]-2-trifluoromethylbenzonitrile] | >10 | 300 | 
CCOC(=O)Nc1cc(N2C(=O)N(c3ccc(C#N)c(OC)c3)C(=O)C2(C)C)ccc1Cl [Example 24, 4-[3-(3-ethoxycarbonylamino-4-chlorophenyl)-4,4-dimethyl-2,5-dioxoimidazolidin-1-yl]-2-methoxybenzonitrile] | >10 |  | 200
CCNC(=O)N1CCC(N2C(=S)N(c3ccc(C#N)c(C(F)(F)F)c3)C(=O)C2(C)C)CC1 [Example 38, 4-[3-(1-ethylaminocarbonylpiperidin-4-yl)-4,4-dimethyl-5-oxo-2-thioxoimidazolidin-1-yl]-2-trifluoromethylbenzonitrile] | >10 |  | 
CC1(C)C(=O)N(c2ccc(C#N)c(C(F)(F)F)c2)C(=S)N1C1CCN(C(=O)OCC(O)CO)CC1 (centres unmarked) [Example 45, 4-[3-(4-cyano-3-trifluoromethylphenyl)-5,5-dimethyl-4-oxo-2-thioxoimidazolidin-1-yl]piperidine-1-carboxylic acid 2,3-dihydroxypropyl ester] | >10 |  | 
COc1cc(N2C(=O)C(C)(C)N(c3ccc(Cl)c(NC(=O)OCC(O)CO)c3)C2=S)ccc1C#N (centres unmarked) [Example 51, {2-chloro-5-[3-(4-cyano-3-methoxyphenyl)-5,5-dimethyl-4-oxo-2-thioxoimidazolidin-1-yl]phenyl}-carbamic acid 2,3-dihydroxypropyl ester] | >10 |  | 
CCNC(=O)N1CCC(N2C(=S)N(c3ccc(C#N)c(Cl)c3)C(=O)C2(C)C)CC1 [Example 40, 4-[3-(1-ethylaminocarbonylpiperidin-4-yl)-4,4-dimethyl-5-oxo-2-thioxoimidazolidin-1-yl]-2-chlorobenzonitrile] | >10 |  | 
CC(=O)NCCN1C(=S)N(c2ccc(C#N)c(C(F)(F)F)c2)C(=O)C1(C)C [Comparative Example 2, 4-[3′-(2″-N-acetylaminoethyl)-4′,4′-dimethyl-5′-oxo-2′-thioxo-1′-imidazolidinyl]-2-trifluoromethylbenzonitrile, reference compound] | 3 |  | 
CC1(C)C(=O)N(c2ccc(C#N)c(Cl)c2)C(=S)N1c1ccc2sc(NC(=O)NCC(O)CO)nc2c1 (centres unmarked) [Example 62, 1-{5-[3-(3-chloro-4-cyanophenyl)-5,5-dimethyl-4-oxo-2-thioxoimidazolidin-1-yl]benzothiazol-2-yl}-3-(2,3-dihydroxypropyl)urea] | >10 |  | 
CCNS(=O)(=O)N1CCC(N2C(=S)N(c3ccc(C#N)c(C(F)(F)F)c3)C(=O)C2(C)C)CC1 [Example 42, 4-[3-(1-ethylaminosulfonylpiperidin-4-yl)-4,4-dimethyl-5-oxo-2-thioxoimidazolidin-1-yl]-2-trifluoromethylbenzonitrile] |  |  | 700
CN(C)CCOC(=O)Nc1cc(N2C(=S)N(c3ccc(C#N)c(Cl)c3)C(=O)C2(C)C)ccc1Cl [Example 53, {2-chloro-5-[3-(4-cyano-3-chlorophenyl)-5,5-dimethyl-4-oxo-2-thioxoimidazolidin-1-yl]phenyl}-carbamic acid 2-dimethylaminoethyl ester] | >10 |  | 
CC1(C)C(=O)N(c2ccc(C#N)c(C(F)(F)F)c2)C(=S)N1c1ccc(Cl)c(NC(=O)CCC(N)=O)c1 [Example 67, N-{2-chloro-5-[3-(4-cyano-3-trifluoromethylphenyl)-5,5-dimethyl-4-oxo-2-thioxoimidazolidin-1-yl]phenyl}-succinamide] | >10 |  | 
